From patent US12564638B2 (SHANGHAITECH UNIVERSITY, priority 2019, dated 2026)
Read-outs that look alike come from different tables or passages of the source.

Tests used:
Assay type in all cases: cell-based
[1] = tested on: HCC827 cells (EGFR Exon19 del, non-small cell lung cancer cells); assay: Cell viability assay (WST/CCK8), HCC827 cells; conditions: Homo sapiens, HCC827, 72 h, HCC827 (Exon19 Del), 72 hours, read-out: IC50 (half inhibitory concentration)
Summary of the method: (§1)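 Plated 3 000 cells/well in complete RPMI1640 the day before dosing; controls were DMSO (negative) and EGFR TKIs (positive).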

[2] = tested on: H1975 (EGFR T790M+L858R mutation, non-small cell lung cancer cell line); assay: Cell viability assay (WST/CCK8), H1975 cells; conditions: Homo sapiens, NCI-H1975, H1975 (L858R + T790M), read-out: IC50 (half inhibitory concentration)
Summary of the method: (§2)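 Cells seeded at 3 000 per well in RPMI1640 complete medium, dosed next day with compounds at indicated concentrations (DMSO negative control, EGFR TKIs as positive control).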

[3] = tested on: PC9 cells (EGFR Exon 19 del, non-small cell lung cancer cells); assay: Cell viability assay (WST/CCK8), PC9 cells; conditions: Homo sapiens, PC-9, PC9 (Exon19 Del), 72 hours, read-out: IC50 (half inhibitory concentration)
Summary of the method: as §1

[4] = tested on: PC9BracA1 (EGFR Exon 19 del+T790M, non-small cell lung cancer cells); assay: Cell viability assay (WST/CCK8), PC9Brac1 cells; conditions: read-out: IC50 (half inhibitory concentration)
Summary of the method: as §2

[5] = target: T1, EGFR (L858R+T790M) in H1975 cells (Homo sapiens, UniProt P00533, L858R/T790M); assay: Western blot of EGFR protein level (degradation), H1975 cells; conditions: H1975 cells, 1, 10, 50, 100, 500 nM, 16 hours
T1 construct: determined in H1975 cells with the EGFR L858R+T790M mutation; endogenous in cells; host or cells: H1975
Method: Cancer cells were planted in 12-well-plate at the density of 0.15 million cells per well with 1 mL RPMI1640 completed culture medium. Compounds with different concentrations (DMSO as a solution system, and 1 μL of compounds of different concentrations was added to 1 mL of the cell culture medium) were added to the cells planted one day before. 16 hours after treated, the medium was discarded and the cells were washed with precooled PBS. The cells were placed on ice and treated with RIPA protein lysis buffer containing halt protease and phosphatase inhibitor. After centrifugation at 10000 rpm at 4° C. for 10 minutes, the supernatant was collected. The same amount of proteins were added into 4×SDS loading buffer and heated at 95° C. for 5 minutes for denaturation, and the samples were stored at −20° C. after denaturation, or directly conducted protein electrophoresis. The 4-20% gradient preformed Electrophoretic gels were purchased from Kingsy. The electrophoresis tank and related components were purchased from Bio-rad company, and the electrophoresis condition was isobaric 120V for 2 hours. PVDF membrane was used for the transmembrane, and the whole transmembrane process was carried out on ice with a constant current of 0.4 amperes for an hour. The membrane was blocked with 5% skimmed milk dilution with TBST buffer. Refer to the corresponding antibody instructions for the specific steps of immunoblotting.
The degradation efficacy of the dacomitinib-based compounds on EGFR was determined in HCC827 and H1975 cell lines, which harboring EGFR Exon 19del and EGFR L858R+T790M mutations respectively.
In FIG. 2, concentration-dependent degradation assays were performed on non-small cell lung cancer cell line H1975 (T790M-mutant cell line, the most common mutation type of first-generation EGFR inhibitors). […] The DC50 of compounds SIAIS262032 and SIAIS262037 are both about 50 nM, which provides great potential for drug development to overcome drug resistance caused by EGFR T790M mutation.
The degradation efficacy of the canertinib-based compounds on EGFR was determined in H1975 cells with the EGFR L858R+T790M mutation.
The H1975 cells were treated with the PROTADs with different concentrations (1, 10, 50, 100, 500 nM) for 16 hours, and then the western blot assay was taken to estimate the EGFR levels of the cell lysates in each group. […] The DC50 of SIAIS262125 and SIAIS262182 are both less than 10 nM, much better than canertinib, which provides great potential for drug development to overcome drug resistance caused by EGFR T790M mutation.

[6] = tested on: BT474 cells (HER2 positive breast cancer cells); assay: Cell viability assay (CCK8), BT474 cells; conditions: for IC50: Homo sapiens, BT-474, Table 10, BT474, 72 hours, read-out: IC50 (half inhibitory concentration)
Summary of the method: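 HER2-overexpressing BT474 cells in RPMI1640 were exposed to compounds for 72 hours over 10 concentrations (3-fold dilution, top 10 μM). Viability was measured with CCK8 reagent against a DMSO control, and IC50 was taken from growth inhibition curves.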

[7] = target: EGFR (Exon 19del) in HCC827 cells (Homo sapiens, UniProt P00533, DEL746-750); assay: Western blot of EGFR protein level (degradation), HCC827 cells; conditions: HCC827 cells, 1, 10, 50, 100, 500 nM, 16 hours
Method: Cancer cells were planted in 12-well-plate at the density of 0.15 million cells per well with 1 mL RPMI1640 completed culture medium. Compounds with different concentrations (DMSO as a solution system, and 1 μL of compounds of different concentrations was added to 1 mL of the cell culture medium) were added to the cells planted one day before. 16 hours after treated, the medium was discarded and the cells were washed with precooled PBS. The cells were placed on ice and treated with RIPA protein lysis buffer containing halt protease and phosphatase inhibitor. After centrifugation at 10000 rpm at 4° C. for 10 minutes, the supernatant was collected. The same amount of proteins were added into 4×SDS loading buffer and heated at 95° C. for 5 minutes for denaturation, and the samples were stored at −20° C. after denaturation, or directly conducted protein electrophoresis. The 4-20% gradient preformed Electrophoretic gels were purchased from Kingsy. The electrophoresis tank and related components were purchased from Bio-rad company, and the electrophoresis condition was isobaric 120V for 2 hours. […]
The degradation efficacy of the dacomitinib-based compounds on EGFR was determined in HCC827 and H1975 cell lines, which harboring EGFR Exon 19del and EGFR L858R+T790M mutations respectively. […]

[8] = PC9Brac1 (Ex19del + T790M), 72 hours, WST
[9] = Table 6, canertinib-based compounds, WST
[10] = Table 7, canertinib-based compounds
[11] = Table 7, canertinib-based compounds, PC9Brca1 (Ex19del + T790M)

T1 sequence (P00533 25-1210 T790M/L858R): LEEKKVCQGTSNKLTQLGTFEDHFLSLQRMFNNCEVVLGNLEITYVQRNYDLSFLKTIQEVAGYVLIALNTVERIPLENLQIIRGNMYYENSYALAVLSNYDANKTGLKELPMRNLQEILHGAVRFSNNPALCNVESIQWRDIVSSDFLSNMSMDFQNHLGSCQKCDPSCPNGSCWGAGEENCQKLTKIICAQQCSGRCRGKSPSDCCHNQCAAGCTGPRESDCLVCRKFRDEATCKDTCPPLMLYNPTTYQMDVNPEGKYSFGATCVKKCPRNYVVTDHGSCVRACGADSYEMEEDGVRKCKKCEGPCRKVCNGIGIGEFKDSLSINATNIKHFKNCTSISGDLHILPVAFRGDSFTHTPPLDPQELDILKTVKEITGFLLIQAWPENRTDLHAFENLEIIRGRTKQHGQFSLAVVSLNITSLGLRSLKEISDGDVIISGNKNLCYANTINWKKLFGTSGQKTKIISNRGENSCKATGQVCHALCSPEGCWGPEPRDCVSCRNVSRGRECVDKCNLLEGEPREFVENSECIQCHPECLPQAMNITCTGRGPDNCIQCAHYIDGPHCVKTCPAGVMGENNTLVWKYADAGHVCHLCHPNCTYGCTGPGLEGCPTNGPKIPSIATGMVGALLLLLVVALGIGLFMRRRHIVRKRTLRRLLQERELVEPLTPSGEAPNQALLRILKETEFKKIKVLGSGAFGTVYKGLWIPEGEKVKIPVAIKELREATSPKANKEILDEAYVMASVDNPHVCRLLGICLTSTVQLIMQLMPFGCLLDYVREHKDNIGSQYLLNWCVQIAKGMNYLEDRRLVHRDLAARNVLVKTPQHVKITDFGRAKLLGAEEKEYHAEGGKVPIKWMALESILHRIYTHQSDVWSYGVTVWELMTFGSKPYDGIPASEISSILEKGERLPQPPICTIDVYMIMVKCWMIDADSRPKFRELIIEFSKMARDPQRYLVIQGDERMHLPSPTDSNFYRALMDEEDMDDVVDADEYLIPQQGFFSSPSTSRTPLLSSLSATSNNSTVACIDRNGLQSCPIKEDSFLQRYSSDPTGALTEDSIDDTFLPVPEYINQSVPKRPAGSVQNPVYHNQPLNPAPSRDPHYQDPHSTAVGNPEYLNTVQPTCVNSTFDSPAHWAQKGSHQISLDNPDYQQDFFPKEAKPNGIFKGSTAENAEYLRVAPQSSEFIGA
Chain of EGFR (Exon 19del) in HCC827 cells (P00533 with tags, fused parts or gaps DEL746-750): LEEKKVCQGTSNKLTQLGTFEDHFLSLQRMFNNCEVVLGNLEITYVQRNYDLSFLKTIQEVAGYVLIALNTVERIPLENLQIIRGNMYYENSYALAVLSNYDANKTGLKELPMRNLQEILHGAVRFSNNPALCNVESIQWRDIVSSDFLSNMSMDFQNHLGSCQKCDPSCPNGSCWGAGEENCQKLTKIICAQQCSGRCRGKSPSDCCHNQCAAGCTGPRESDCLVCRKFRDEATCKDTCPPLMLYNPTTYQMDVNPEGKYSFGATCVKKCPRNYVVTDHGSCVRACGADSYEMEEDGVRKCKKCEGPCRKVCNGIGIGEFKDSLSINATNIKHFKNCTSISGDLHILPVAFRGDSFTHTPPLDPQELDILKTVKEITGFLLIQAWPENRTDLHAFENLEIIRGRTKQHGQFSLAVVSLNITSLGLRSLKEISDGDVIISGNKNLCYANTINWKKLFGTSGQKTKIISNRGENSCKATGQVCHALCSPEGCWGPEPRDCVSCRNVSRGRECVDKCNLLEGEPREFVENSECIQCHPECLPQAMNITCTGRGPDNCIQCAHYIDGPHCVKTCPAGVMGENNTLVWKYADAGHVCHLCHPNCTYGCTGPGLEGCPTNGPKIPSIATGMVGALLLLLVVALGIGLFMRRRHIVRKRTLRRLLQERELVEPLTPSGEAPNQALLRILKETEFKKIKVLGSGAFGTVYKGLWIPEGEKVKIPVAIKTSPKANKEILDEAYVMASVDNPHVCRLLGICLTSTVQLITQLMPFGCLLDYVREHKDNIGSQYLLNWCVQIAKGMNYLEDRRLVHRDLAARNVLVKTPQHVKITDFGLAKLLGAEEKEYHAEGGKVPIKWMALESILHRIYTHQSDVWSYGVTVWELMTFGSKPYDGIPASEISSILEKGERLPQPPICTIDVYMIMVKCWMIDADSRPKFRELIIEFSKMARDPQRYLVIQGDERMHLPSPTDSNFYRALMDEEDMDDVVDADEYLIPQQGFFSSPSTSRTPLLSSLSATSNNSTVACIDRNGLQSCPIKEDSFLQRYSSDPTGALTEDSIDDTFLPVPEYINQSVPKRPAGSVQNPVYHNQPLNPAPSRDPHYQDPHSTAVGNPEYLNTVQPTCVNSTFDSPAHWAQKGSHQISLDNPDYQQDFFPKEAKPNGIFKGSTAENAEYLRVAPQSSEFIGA

Row | IC50 ([1]; WST (CCK8)) [nM] | IC50 ([2]; 72 hours, WST) [nM] | IC50 ([3]; WST (CCK8)) [nM] | IC50 [4, 8] [nM] | EGFR degradation (EGFR level, western blot) [5] | IC50 [6] [nM] | IC50 [1, 9] [nM] | IC50 [2, 10] [nM] | IC50 [3, 9] [nM] | IC50 [4, 11] [nM] | EGFR degradation (EGFR level, western blot) [7] | Compound | antineoplastic activity (in words) ([6]; BT474 cells, 72 hours)
1 | 2.2 | 514 | 6.1 | 491 | obvious EGFR degradation efficacy | 2.1 | – | – | – | – | – | COc1cc2ncnc(Nc3ccc(F)c(Cl)c3)c2cc1NC(=O)/C=C/CN1CCC(N2CCN(C(=O)CCCCCSc3cccc4c3CN(C3CCC(=O)NC3=O)C4=O)CC2)CC1 (stereo not drawn) [SIAIS262035, (E)-N-(4-((3-chloro-4-fluorophenyl)amino)-7-methoxyquinazolin-6-yl)-4-(4-(4-(6-((2-(2,6-dioxopiperidin-3-yl)-1-oxoisoindolin-4-yl)thio)hexanoyl)piperazin-1-yl)piperidin-1-yl)but-2-enamide] | –
2 | 0.3 | < 25 | – | – | obvious EGFR degradation efficacy | 9.6 | 0.3 | 15 | 1.3 | 79 | – | C=CC(=O)Nc1cc2c(Nc3ccc(F)c(Cl)c3)ncnc2cc1OCCCN1CCN(C(=O)CCCCCNc2cccc3c2C(=O)N(C2CCC(=O)NC2=O)C3=O)CC1 (stereo not drawn) [SIAIS262125, N-(4-((3-chloro-4-fluorophenyl)amino)-7-(3-(4-(6-((2-(2,6-dioxopiperidin-3-yl)-1,3-dioxoisoindolin-4-yl)amino)hexanoyl)piperazin-1-yl)propoxy)quinazolin-6-yl)acrylamide] | better antineoplastic activity than the relative EGFR TKIs
3 | 0.5 | 834 | 0.4 | 674 | – | – | – | – | – | – | couldn't degrade EGFR | COc1cc2ncnc(Nc3ccc(F)c(Cl)c3)c2cc1NC(=O)/C=C/CN1CCCCC1 [dacomitinib, reference compound] | –

The next lines start with the compound.

Row | Compound | IC50 ([1]; WST (CCK8)) [nM] | IC50 ([2]; 72 hours, WST) [nM] | IC50 ([3]; WST (CCK8)) [nM] | IC50 [4, 8] [nM] | EGFR degradation (EGFR level, western blot) [5] | IC50 [6] [nM] | IC50 [1, 9] [nM] | IC50 [2, 10] [nM] | IC50 [3, 9] [nM] | IC50 [4, 11] [nM] | EGFR degradation (EGFR level, western blot) [7] | antineoplastic activity (in words) ([6]; BT474 cells, 72 hours)
4 | C=CC(=O)Nc1cc2c(Nc3ccc(F)c(Cl)c3)ncnc2cc1OCCCN1CCC(N2CCN(CCCCCCSc3cccc4c3CN(C3CCC(=O)NC3=O)C4=O)CC2)CC1 (stereo not drawn) [SIAIS262180, N-(4-((3-chloro-4-fluorophenyl)amino)-7-(3-(4-(4-(6-((2-(2,6-dioxopiperidin-3-yl)-1-oxoisoindolin-4-yl)thio)hexyl)piperazin-1-yl)piperidin-1-yl)propoxy)quinazolin-6-yl)acrylamide] | – | – | – | – | obvious EGFR degradation efficacy | 4.4 | 4.2 | 24 | 10.2 | 570 | – | –
5 | C=CC(=O)Nc1cc2c(Nc3ccc(F)c(Cl)c3)ncnc2cc1OCCCN1CCN(CCCCCCNc2cccc3c2C(=O)N(C2CCC(=O)NC2=O)C3=O)CC1 (stereo not drawn) [SIAIS262182, N-(4-((3-chloro-4-fluorophenyl)amino)-7-(3-(4-(6-((2-(2,6-dioxopiperidin-3-yl)-1,3-dioxoisoindolin-4-yl)amino)hexyl)piperazin-1-yl)propoxy)quinazolin-6-yl)acrylamide] | – | < 25 | – | – | obvious EGFR degradation efficacy | 5 | 1.4 | 12 | 11.1 | 192 | – | –
